The source of these data is paper PMC4142842, “Synthesis of isoprenoid bisphosphonate ethers through C–P bond formations: Potential inhibitors of geranylgeranyl diphosphate synthase” (Beilstein Journal of Organic Chemistry, 2014).

The target of experiment [1] is T1, farnesyl diphosphate synthase (FDPS) (Homo sapiens, UniProt P14324).
T1 construct: gift of Dr. James E. Dunford (not a commercial vendor)
T1 sequence (P14324 1-419): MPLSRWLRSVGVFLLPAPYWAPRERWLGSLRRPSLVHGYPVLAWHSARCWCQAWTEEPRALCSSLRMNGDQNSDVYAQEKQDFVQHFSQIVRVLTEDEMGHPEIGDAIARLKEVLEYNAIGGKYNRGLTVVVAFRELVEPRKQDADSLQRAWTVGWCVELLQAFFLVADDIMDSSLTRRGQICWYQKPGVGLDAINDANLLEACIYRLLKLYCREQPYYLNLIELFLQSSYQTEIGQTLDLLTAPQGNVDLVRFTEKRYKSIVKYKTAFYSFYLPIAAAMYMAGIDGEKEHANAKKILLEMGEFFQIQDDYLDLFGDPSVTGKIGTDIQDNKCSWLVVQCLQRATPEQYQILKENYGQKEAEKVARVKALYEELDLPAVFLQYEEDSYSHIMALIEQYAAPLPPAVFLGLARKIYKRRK
Kind of experiment: FDPS enzyme assay (14C-IPP incorporation, GPP substrate). Format: biochemical. The conditions noted are these: for IC50: 10 µM GPP, 10 min preincubation.

For experiment [2], the target named is T1, farnesyl diphosphate synthase (FDPS). Details: method as in PMID 17208200. As to conditions: earlier enzyme assays; cited from earlier work.
The next experiment relates to K562 cells. Details: method as in PMID 16517172. As to conditions: micromolar DGBP; cited from earlier work.
Experiment [3] addresses T2, geranylgeranyl diphosphate synthase (GGDPS) (Homo sapiens, UniProt O95749).
T2 construct: gift of Dr. James E. Dunford (not a commercial vendor)
T2 sequence (O95749 1-300): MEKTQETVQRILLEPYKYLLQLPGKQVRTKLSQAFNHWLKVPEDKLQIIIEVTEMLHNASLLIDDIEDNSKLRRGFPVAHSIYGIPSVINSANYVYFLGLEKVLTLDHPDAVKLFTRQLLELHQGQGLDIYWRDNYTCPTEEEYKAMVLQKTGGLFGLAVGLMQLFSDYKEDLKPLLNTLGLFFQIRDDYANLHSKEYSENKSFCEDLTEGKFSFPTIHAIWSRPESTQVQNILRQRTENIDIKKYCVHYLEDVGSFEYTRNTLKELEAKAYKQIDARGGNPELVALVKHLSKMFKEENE
Kind of experiment: GGDPS enzyme assay (14C-IPP incorporation, FPP substrate). Format: biochemical. As to conditions: for IC50 / activity against GGDPS (in words): enzyme assay; for IC50: 10 µM FPP, 10 min preincubation.

Experiment [4] concerns the target T2, geranylgeranyl diphosphate synthase (GGDPS). The conditions noted are these: previously reported limited activity; cited from earlier work.

SMILES strings stand for the structures. Read-outs that look alike come from different tables or passages of the source. Bounds are passed on as bounds.

The IC50 is the point on the concentration scale where inhibition reaches its midpoint. As for `CC(C)=CCC/C(C)=C/CC(C/C=C(\C)CCC=C(C)C)(P(=O)(O)O)P(=O)(O)O` [Compound 5, digeranyl bisphosphonate], the IC50 in experiment [1] and in experiment [2] was above 10 µM in each case. Besides, the “Rap1a geranylgeranylation (Western blot)” value with K562 cells is “only partially modified”.
On to `CC(C)=CCC/C(C)=C/COC(C/C=C(\C)CCC=C(C)C)(P(=O)(O)O)P(=O)(O)O` [Compound 6], for which the half-maximal inhibitory concentration (IC50) is 0.408 µM in experiment [3] and above 10 µM in experiment [1].
On to `CC(C)=CCC/C(C)=C/COC(P(=O)(O)O)P(=O)(O)O` [Compound 11], for which the IC50 in experiment [3] was 0.238 µM; in experiment [1] it was above 10 µM.
On to `CC(C)=CCOC(P(=O)(O)O)P(=O)(O)O` [Compound 14], for which the “activity against GGDPS (in words)” value in experiment [3] is recorded as “little or no activity”. In addition, the “activity against FDPS (in words)” value in experiment [1] is listed as “little or no activity”.
As for `CC(C)=CCC/C(C)=C/CC(OCC=C(C)C)(P(=O)(O)O)P(=O)(O)O` [Compound 16], the IC50 in experiment [3] was 0.684 µM; in experiment [1] it was 0.83 µM.
For `CC(C)=CCOC(CC=C(C)C)(P(=O)(O)O)P(=O)(O)O` [Compound 18], in experiment [3], the “activity against GGDPS (in words)” value was “little or no activity” and the midpoint of inhibition, the IC50, lay at 4.75 µM. Besides, in experiment [1], the “activity against FDPS (in words)” value is listed as “little or no activity” and the half-inhibitory concentration (IC50) is 5.26 µM.
`CC(C)=CCC/C(C)=C/COC(CC=C(C)C)(P(=O)(O)O)P(=O)(O)O` [Compound 20]: the 50% inhibitory concentration (IC50) in experiment [3] was 0.274 µM; in experiment [1], above 10 µM.
In experiment [3], `CC(C)=CCC/C(C)=C/CC(OCC[C@@H](C)CCC=C(C)C)(P(=O)([O-])[O-])P(=O)([O-])[O-].[Na+].[Na+].[Na+].[Na+]` [Compound 24] gave an IC50 of 0.082 µM. Also, in experiment [3] (ratio of GGDPS IC50 values), the “fold more potent than the DGBP control (5), GGDPS” value is on record as ~ 2.6 fold. In experiment [1], the “activity against FDPS (in words)” value is reported as “no activity” and the half-inhibitory concentration (IC50) was above 10 µM.
With `CC(C)=CCCC(C)=CCC(P(=O)(O)O)P(=O)(O)O` [geranyl bisphosphonate], in experiment [4], the “activity previously reported (GGDPS inhibition)” value is 10 µM.
